Values of other authors in patent US20030104065A1, “Method of preparing solid dispersions” (priority 2002, published 2003).

Settings: local anesthetic effect, versus lidocaine

CCCN1CCCC[C@H]1C(=O)Nc1c(C)cccc1C [ropivacaine]
therapeutic potency relative to lidocaine: about 50 times
